Assay results as given in patent US20250011738A1, “HEAT TOLERANT ALKALINE PHOSPHATASE” (BiomEdit, LLC, priority 2021, published 2025).
Where two headings read alike, the source gives them in different places.

Target: T1, Paenibacillus lentus alkaline phosphatase AP1 heat tolerant mutant APHT (designated "HT"), 16 amino acid changes from AP1, SEQ ID NO: 1 (Paenibacillus lentus, UniProt A0A3Q8S6G4, A163G/A247P/A302M/D102S/D304A/F110I/G290A/K198N/K66I/L136H/S105A/S168N/S338G/S535E/T223N/V100I/Y117N)
T1 sequence (A0A3Q8S6G4 34-572 K66I/V100I/D102S/S105A/F110I/Y117N/L136H/A163G/S168N/K198N/T223N/A247P/G290A/A302M/D304A/S338G/S535E): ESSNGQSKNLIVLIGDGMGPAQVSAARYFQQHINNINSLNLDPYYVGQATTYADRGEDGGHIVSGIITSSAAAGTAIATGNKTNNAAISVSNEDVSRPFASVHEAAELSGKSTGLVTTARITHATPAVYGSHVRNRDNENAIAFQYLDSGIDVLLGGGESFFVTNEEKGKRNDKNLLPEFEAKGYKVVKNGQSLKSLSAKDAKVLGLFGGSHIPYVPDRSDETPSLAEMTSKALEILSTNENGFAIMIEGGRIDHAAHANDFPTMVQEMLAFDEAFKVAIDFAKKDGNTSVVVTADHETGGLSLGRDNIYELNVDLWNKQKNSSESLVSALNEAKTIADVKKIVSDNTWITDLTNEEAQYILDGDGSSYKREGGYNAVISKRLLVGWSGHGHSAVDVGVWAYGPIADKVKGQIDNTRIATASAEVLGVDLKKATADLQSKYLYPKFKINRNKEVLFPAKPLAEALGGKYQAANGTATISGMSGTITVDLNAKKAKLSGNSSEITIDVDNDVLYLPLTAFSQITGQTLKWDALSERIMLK
Format: biochemical
Procedure: FIG. 7 presents effect of pH on (A)Vmax (IU/mg) and (B) KM (μM) activity of AP1 (designated “Native”) and APHT (designated “HT”). Assays were performed at 40° C. with p-NPP as substrate in the concentration range 0-5 mM. The enzyme concentration was 2.5 μg/mL for the pH 8 and 0.4 mg/mL for pH 9-13).
FIG. 8 presents effect of pH on (A)Vmax (IU/mg) and (B) KM (μM) activity of AP1 (designated “Native”) and APHT (designated “HT”). Assays were performed at 50° C. with p-NPP as substrate in the concentration range 0-5 mM. The enzyme concentration was 2.5 μg/mL for the pH 8 and 0.4 mg/mL for pH 9-13).
To further improve the thermal stability, a set of synthetic alkaline phosphatase genes where each amino acid was mutated to other possibilities one at a time was constructed and evaluated. […] In FIG. 5A, the AP1 with a serine mutation is designated as “AP Native” and is depicted in sequence with a leader sequence […] (SEQ ID NO:13). The AP1 with leader sequence […] is provided in SEQ ID NO:14). The APHT polypeptide with leader sequence […] is provided in SEQ ID NO:15). In FIG. 5B, the AP1 with a serine mutation and without any leader sequence or leader peptide amino acids (SEQ ID NO:4) is aligned and compared with the APHT without any leader sequence or leader peptide amino acids (SEQ ID NO:1). The 16 amino acid changes in APHT are evident. The APHT amino acid sequence (excluding and without any leader sequence and starting with amino acids ESSN) is 97% identical to the sequence of AP1 (excluding and without any leader sequence and starting with amino acids ESSN).
The APHT sequence (SEQ ID NO: 1) is provided below with the amino acid mutations versus the AP1 sequence underlined and in bold.
• 1 M DEA Buffer pH 10. Dissolve 10.5 g of diethanolamine in to 100 ml of water. The pH adjust with 1 M hydrochloric acid or 1 M NaOH. Filter sterilize and store at 4 C. • 0.5 M Tris Base Buffer pH 10 and 8. Dissolve 6.06 g of Tris in to 100 ml of water. The pH adjust with 1 M hydrochloric acid or 1 M NaOH. Filter sterilize and store at 4 C. • 0.1 M Borate Buffer pH 11 and 12. Dissolve 0.62 g Boric acid, 0.44 g NaCl and Sodium tetraborate 0.95 g in 100 ml H2O. The pH adjust with 1 M hydrochloric acid or 1 M NaOH. Filter sterilize and store at 4 C. • 1 M KCl/NaOH Buffer pH 13. Dissolve 7.4 g KCl in 100 ml water. The pH adjust with 1 M NaOH. Filter sterilize and store at 4 C. • 1 M MgCl2, 23.8 g MgCl2 anhydrous in […] water. Filter sterilize and store at 4 C 3. Activity Assay: p-NPP Substrate
Reactions were carried out at 40° C. using 50 mM Tris buffer pH 7 with 50 mM MgCl2 and at 50° C. using 50 mM DEA buffer pH 10 with 50 mM MgCl2. Enzyme was thawed, aliquoted in 500 μL vials and freeze at −80° C. For 100 μL volume of reaction, components were mixed in 96-well microplate (Fisher 12565501) following the order in TABLE 1. Every reaction condition was done by triplicated at least.
After the adding enzyme, the absorption of product was followed at 405 nm over 5 min in a M5 plate reader with intervals of 20 s. Initial rate was determined for each curve and product formed calculated using the extinction coefficient of 18.5 mM^−1·cm^−1 and a calculated pathlength of 0.5 cm. Initial rates where fitted to Michalis Menten model built in the Kaleidagraph software.
pH effect on enzyme activity was tested at 40 and 50° C. in the corresponding buffer with 50 mM MgCl2 using p-NPP as substrate in the concentration range 0-5.0 mM. The reaction started with the addition of enzyme (2.5 μg/mL for pH 8 and 0.4 μg/mL for pH 9-13) and the absorption at 405 nm was followed for 5 min. Every reaction condition was done by triplicated at least.

O=[N+]([O-])c1ccc(OP(=O)(O)O)cc1 [p-NPP, p-nitrophenylphosphate]
Km (40° C., Borate pH 11): 12200 µM | Km (40° C., Borate pH 12): 498 µM | Km (40° C., DEA pH 10): 2540 µM | Km (40° C., Tris pH 8): 46 µM | Km (40° C., Tris pH 9): 992 µM | Km (50° C., Borate pH 11): 12200 µM | Km (50° C., Borate pH 12): 1080 µM | Km (50° C., DEA pH 10): 2540 µM | Km (50° C., KCl/NaOH (pH printed 204; Table 2: 13.0)): 498 µM | Km (50° C., Tris pH 8): 45 µM | Km (50° C., Tris pH 9): 992 µM
